These results are taken from ChEMBL document CHEMBL5096153, “Spirocyclic Scaffolds in Medicinal Chemistry” (J Med Chem, 2021).

The target in data set [1] is T1, Retinoic acid receptor RXR-alpha (Homo sapiens) (UniProt P19793).
T1 sequence (whole entry): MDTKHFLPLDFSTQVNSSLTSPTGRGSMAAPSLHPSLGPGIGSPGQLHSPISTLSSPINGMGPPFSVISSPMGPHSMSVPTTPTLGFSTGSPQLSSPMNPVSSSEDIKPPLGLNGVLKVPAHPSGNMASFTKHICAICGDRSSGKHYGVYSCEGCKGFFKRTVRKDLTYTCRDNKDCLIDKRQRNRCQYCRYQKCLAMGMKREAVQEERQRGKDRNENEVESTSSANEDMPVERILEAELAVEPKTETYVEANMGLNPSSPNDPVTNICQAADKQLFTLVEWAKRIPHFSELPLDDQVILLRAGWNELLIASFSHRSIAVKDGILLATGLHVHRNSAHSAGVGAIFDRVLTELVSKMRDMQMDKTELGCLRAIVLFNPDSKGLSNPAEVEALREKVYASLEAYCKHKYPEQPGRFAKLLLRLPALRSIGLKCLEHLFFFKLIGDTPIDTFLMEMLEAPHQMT
Nature of the data set: Agonist activity at RXRalpha (unknown origin) using fluorescein-D22 as substrate by fluorescence polarization assay relative to control. On the technique in general: Fluorescence polarisation rises when a labelled molecule tumbles more slowly, as on binding a larger partner.

A short description of data set [2]: Selectivity ratio of Ki for rat liver Sigma2 receptor to Ki for Guinea pig brain Sigma1 receptor.
Data set [3] in a line: AUC (0 to 4 hrs) in rat at 5 mg/kg, po. It is filed as ADME, organism-based. More on the design: time < 4 hr, dose 5 mg/kg, route po. The note with it: in vivo.
The nature of data set [4]: Volume of distribution in rat at 2 mg/kg, iv. It is filed as ADME, organism-based. The note with it: in vivo.
The target in data set [5] is NF-kappa-B essential modulator (Homo sapiens, UniProt Q9Y6K9). Nature of the data set: Binding affinity to full-length human NEMO (1 to 419 residues) assessed as dissociation constant.
Data set [6] in a line: Octanol-water partition coefficient, log P of the compound by LC-MS/MS analysis. It is filed as physicochemical.
The nature of data set [7]: Metabolic stability in human liver microsomes assessed as compound remaining. It is filed as ADME, Microsome.
Data set [8] can be described thus: Cytotoxicity against human HUVEC cells assessed as reduction in cell viability. The class given is toxicity, cell-based.
In the next data set the test system is Influenza A virus. Nature of the data set: Antiviral activity against wild-type Influenza A virus A/M2 assessed as viral growth inhibition. The class given is functional, organism-based.
The nature of data set [9]: Cmax in rat plasma at 5 mg/kg, po. The arrangement: dose 5 mg/kg, route po. The class given is ADME, organism-based.
Data set [10] in a line: AUC (0 to infinity) in rat plasma at 5 mg/kg, po. It is filed as ADME, organism-based. The arrangement: time infinity, dose 5 mg/kg, route po.
The target in data set [11] is T2, Retinoic acid receptor RXR-alpha (Homo sapiens, UniProt P19793).
T2 sequence (P19793 whole entry): T1 sequence (whole entry)
Nature of the data set: Agonist activity at RXRalpha (unknown origin) using fluorescein-D22 as substrate by fluorescence polarization assay.

Data set [12] in a line: Inhibition of Plasmodium vivax SHMT.
In data set [13] the target is Phosphoglycerate mutase 1 (Homo sapiens, UniProt P18669). Put plainly: Inhibition of PGAM1 in human MDA-MB-231 cells. The class given is cell-based.
Another data set has as its system MDA-MB-231. Put plainly: Cytotoxicity against human MDA-MB-231 cells assessed as cell growth inhibition. The class given is functional, cell-based.

Molecules are shown by their SMILES.

NF-kappa-B essential modulator, sequence (Q9Y6K9 whole entry, the tested form may be a part): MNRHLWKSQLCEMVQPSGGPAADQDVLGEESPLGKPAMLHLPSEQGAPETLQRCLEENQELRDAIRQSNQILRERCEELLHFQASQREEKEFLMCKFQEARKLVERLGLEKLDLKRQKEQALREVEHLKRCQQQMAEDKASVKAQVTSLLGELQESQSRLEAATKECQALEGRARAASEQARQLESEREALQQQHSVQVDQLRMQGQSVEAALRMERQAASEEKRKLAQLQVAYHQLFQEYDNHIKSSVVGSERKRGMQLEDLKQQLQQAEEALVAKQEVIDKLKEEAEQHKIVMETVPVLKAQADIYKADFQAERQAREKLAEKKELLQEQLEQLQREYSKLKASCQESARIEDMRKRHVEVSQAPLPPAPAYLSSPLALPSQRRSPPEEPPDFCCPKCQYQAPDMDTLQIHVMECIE
Phosphoglycerate mutase 1, sequence (P18669 whole entry): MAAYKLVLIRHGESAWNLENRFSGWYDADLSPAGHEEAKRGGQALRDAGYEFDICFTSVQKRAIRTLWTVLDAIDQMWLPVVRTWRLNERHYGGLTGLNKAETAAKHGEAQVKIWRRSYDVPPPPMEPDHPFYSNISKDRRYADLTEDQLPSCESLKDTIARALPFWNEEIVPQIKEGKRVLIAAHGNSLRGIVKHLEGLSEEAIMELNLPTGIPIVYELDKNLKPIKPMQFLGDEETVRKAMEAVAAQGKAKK

Consider `CC1(C)CCC(C)(C)c2cc3c(cc21)CCC1(CCc2cc(C(=O)O)ccc2O1)O3` (stereo in doubt; form 1) [listing 1 of 2 here], for which the Efficacy in data set [1] (filed as agonist) came to 54%.

Regarding `c1ccc(CN2CCC3(CCCc4ccccc43)CC2)cc1`, the Ratio Ki in data set [2] worked out at 22.

Regarding `COc1ccc2nc3c(nc2c1)O[C@@H]1C[C@H]2C(=O)N[C@]4(C(=O)NS(=O)(=O)C5(C)CC5)C[C@H]4/C=C\CCCCC[C@H](NC(=O)O[C@@H]4CCC[C@H]4CCCCC3)C(=O)N2C1`, the AUC(0-t) (commonly exposure summed from dosing to a finite time, without extrapolation to infinity) at 4 h in data set [3] is 0.77 µM·h. Moreover, in [4], the Vd (commonly a proportionality between amount in the body and measured concentration, not a real space) stood at 4 L/kg.

In the case of `Cc1ccc([C@@H]2[C@H]3C=C(C=O)[C@@H](c4ccc(C)cc4)[C@H]([N+](=O)[O-])[C@@H]3C[C@@]23C(=O)N(C)c2ccccc23)cc1`, in [5], the Kd (commonly the equilibrium constant for the complex coming apart) came to 80 nM.

In the case of `O=C1Nc2ccc(F)cc2C12Cc1ccccc1B(O)O2` (centres undefined), the logP (commonly a log measure of how a compound divides between an organic and an aqueous phase) in [6] was under 4. In addition, the Stability in data set [7] is over 80%.

Consider `c1ccc(CN2CC[Si]3(CCCc4ccccc43)CC2)cc1`, for which the Ratio Ki in data set [2] came to 221.

With `COc1ccc(Cn2nnc3c2[C@]2(CC[C@H]3OC(=O)NC(C)C)CO2)cc1`, the EC50 (in general, the concentration that produces a half-maximal response) in [8] amounted to 94 nM.

Turning to `NC1CCC2(CCCC2)CC1`, in the data set on Influenza A virus, the IC50 (as a rule, the concentration needed to halve the response being measured) turned out to be 3.3 µM.

For the compound `COc1ccc2nc3c(nc2c1)O[C@@H]1C[C@H]2C(=O)N[C@]4(C(=O)NS(=O)(=O)C5(C)CC5)C[C@H]4/C=C\CCCCC[C@H](NC(=O)O[C@@H]4CCC[C@H]4CCCCC3)C(=O)N2C1.[K+]`, the Cmax – broadly, the maximum level reached in the sampled fluid or tissue – in [9] was found to be 70 nM. Also, the AUC(0-inf) (as a rule, total exposure, with the tail of the curve extrapolated) in [10] worked out at 2.4 µM·h.

In turn, `CC1(C)CCC(C)(C)c2cc3c(cc21)CCC1(CCc2cc(C(=O)O)ccc2O1)O3` (racemic) [listing 1 of 2 here] showed an EC50 in data set [11] of 730 nM.

In the case of `CC1(C)CCC(C)(C)c2cc3c(cc21)CCC1(CCc2cc(C(=O)O)ccc2O1)O3` (racemic) [listing 2 of 2 here], the Efficacy in [1] (filed as agonist) is 53%.

In the case of `Cc1ccc([C@@H]2[C@H]3C=C(C=O)[C@@H](c4ccc(C)cc4)[C@H]([N+](=O)[O-])[C@@H]3C[C@]23C(=O)N(C)c2ccccc23)cc1`, the Kd in [5] came to 190 nM.

For `CC1(C)CCC(C)(C)c2cc3c(cc21)CCC1(CCc2cc(C(=O)O)ccc2O1)O3` (stereo in doubt; form 2) [listing 1 of 2 here], in data set [11], the EC50 was determined as 1200 nM.

With `O=C1Nc2ccccc2C12Cc1ccccc1B(O)O2` (centres undefined), in [6], the logP is under 4. Besides, the Stability in [7] is over 80%.

For the compound `Cc1[nH]nc2c1C1(C(C#N)=C(N)O2)c2cc(N3CCC(CC(=O)O)CC3)cc(F)c2CC1(C)C` (racemic), the IC50 in [12] was 61 nM.

`O=C1Nc2ccc(Cl)cc2C12Cc1ccccc1B(O)O2` (centres undefined) displayed a logP in data set [6] of under 4. For the same compound, the Stability in data set [7] is over 80%.

Turning to `NC1CC[Si]2(CCCC2)CC1`, the IC50 with Influenza A virus is 7.8 µM.

On to `C#CCCCC(=O)OC(C)(C)C1CCC2(CO2)C(OC(=O)N[C@@H](Cc2c[nH]c3ccccc23)C(=O)OCc2ccccc2)C1` (some centres undefined), for which the IC50 turned out to be 33 µM in [13] and 19 µM in the data set on MDA-MB-231.

Take `CC1(C)CCC(C)(C)c2cc3c(cc21)CCC1(CCc2cc(C(=O)O)ccc2O1)O3` (stereo in doubt; form 2) [listing 2 of 2 here]: the Efficacy in data set [1] came out at 26%.

Turning to `Cc1[nH]nc2c1[C@]1(C(C#N)=C(N)O2)c2cc(N3CCC(CC(=O)O)CC3)cc(F)c2CC1(C)C`, half-maximal inhibition in [12] (IC50) required 43 nM.

The compound `O=C1Nc2cc(C(F)(F)F)ccc2C12Cc1ccccc1B(O)O2` (centres undefined) yielded a logP in data set [6] of under 4. Further, the Stability in data set [7] is listed as over 80%.

Regarding `Cc1[nH]nc2c1[C@@]1(C(C#N)=C(N)O2)c2cc(N3CCC(CC(=O)O)CC3)cc(F)c2CC1(C)C`, the IC50 in data set [12] was 2510 nM.

`O=C1Nc2cc(Cl)ccc2C12Cc1ccccc1B(O)O2` (centres undefined) gave a logP in data set [6] of under 4. In data set [7], the Stability was over 80%.

Compound `CN1C(=O)C2(Cc3ccccc3B(O)O2)c2ccccc21` (centres undefined) came in with a logP in data set [6] of under 4. For the same compound, in data set [7], the Stability is given as over 80%.

In turn, `CC1(C)CCC(C)(C)c2cc3c(cc21)CCC1(CCc2cc(C(=O)O)ccc2O1)O3` (stereo in doubt; form 1) [listing 2 of 2 here] yielded an EC50 in [11] of 170 nM.
